From publication PMC5283093 (European journal of medicinal chemistry, 2016) come the findings set out here.

One data set concerns the target HIV-1 integrase (IN) (Human immunodeficiency virus type 1 group M subtype B, UniProt P12497). Description: HTRF-based LEDGF/p75 independent 3′-processing assay. Format: biochemical.
The next data set has as its system HEK293T cells. The following applies: without viral infection (Fig. 4B).

In the case of `O=C(O)c1cc(N(Cc2ccccc2)Cc2ccccc2)ccc1O` [Compound 1, 5-(Dibenzylamino)-2-hydroxybenzoic acid], the “inhibition of IN 3′processing activity in the absence of LEDGF/p75 (in words)” value (from here on “inhibition of IN 3′processing activity”) against HIV-1 integrase (IN) was “weak inhibitions”.
For the molecule `O=C(O)c1cc(N(Cc2ccccc2Cl)Cc2ccccc2Cl)ccc1O` [Compound 2, 5-[Bis(2-chlorobenzyl)amino]-2-hydroxybenzoic acid], in the data set on HEK293T cells, the “cellular toxicity in words” value is reported as “significant cellular toxicity”. Further, the “inhibition of IN 3′processing activity” value at HIV-1 integrase (IN) is “weak inhibitions”.
For `O=C(O)c1cc(N(Cc2ccccc2F)Cc2ccccc2F)ccc1O` [Compound 5, 5-[Bis(2-fluorobenzyl)amino]-2-hydroxybenzoic acid], the “inhibition of IN 3′processing activity” value at HIV-1 integrase (IN) is listed as “weak inhibitions”.
On the same count and under the same terms, the value for `O=C(O)c1cc(N(Cc2cccc(F)c2)Cc2cccc(F)c2)ccc1O` [Compound 6, 5-[Bis(3-fluorobenzyl)amino]-2-hydroxybenzoic acid] was “weak inhibitions”.
